In brackets after ≈: the same amount, converted by molar mass.
How the values were obtained:
[1] = Initial plasma concentration in male Sprague-Dawley rat at 0.5 mg/kg, iv administered as single bolus dose using PEG-200/NaCl formulation measured after 24 hrs by LC-MS/MS analysis
[2] = Half-life in male Sprague-Dawley rat at 0.5 mg/kg, iv administered as single bolus dose using PEG-200/NaCl formulation measured after 24 hrs by LC-MS/MS analysis; conditions: in vivo
in vivo [3] = conditions: CD1, mouse, iv, 1 mg/kg
in vitro [4] = conditions: human, cryopreserved hepatocytes
in vitro [5] = conditions: human, liver microsomes
[6] = Volume of distribution at steady state in CD1 mouse at 1 mg/kg, iv administered as single bolus dose using PEG-200/saline formulation measured after 24 hrs by LC-MS/MS analysis; conditions: in vivo
in vivo [7] = conditions: CD1, mouse, po, 5 mg/kg
[8] = Volume of distribution at steady state in male Sprague-Dawley rat at 0.5 mg/kg, iv administered as single bolus dose using PEG-200/NaCl formulation measured after 24 hrs by LC-MS/MS analysis; conditions: in vivo
[9] = Thermodynamic solubility of compound at pH 3; conditions: buffer
Cytochrome P450 3A4 [10] = target: T1, Cytochrome P450 3A4 (Homo sapiens, UniProt P08684); assay: Time-dependent inhibition of CYP3A4 in human liver microsomes using midazolam as substrate and in presence of co-factor by LC-MS/MS analysis
[11] = Half life in Beagle dog at 0.5 mg/kg, iv administered as 10 mins infusion via catheter by LC-MS/MS analysis; conditions: in vivo
Cytochrome P450 3A4 [12] = target: T1, Cytochrome P450 3A4; assay: Inhibition of human CYP3A4 in human liver microsomes using testosterone as substrate and in presence of co-factor preincubated for 20 mins followed by substrate addition by LC-MS/MS analysis
[13] = Clearance in male Sprague-Dawley rat at 0.5 mg/kg, iv administered as single bolus dose using PEG-200/NaCl formulation measured after 24 hrs by LC-MS/MS analysis; conditions: in vivo
[14] = Plasma protein binding in human at 5 uM measured after 4 hrs by LC-MS/MS analysis
in vivo [15] = conditions: Beagle, dog, iv, 0.5 mg/kg
in vivo [16] = conditions: Beagle, dog, po
[17] = Clearance in Beagle dog at 0.5 mg/kg, iv administered as 10 mins infusion via catheter by LC-MS/MS analysis; conditions: in vivo
[18] = Inhibition of embelin-induced migration of rat neutrophils preincubated for 30 mins followed by embelin addition and measured after 1 hr by celltiter-glo assay; conditions: Neutrophil
in vitro [19] = conditions: dog, liver microsomes
in vivo [20] = conditions: Balb/c, mouse, plasma, po, 3 mg/kg
in vivo [21] = conditions: Beagle, dog, po; remark: listed apart in the source
physchem = conditions: aqueous solution with 2% DMSO, pH 3
in vivo [22] = conditions: CD1, mouse, po, 5 mg/kg; remark: listed apart in the source
Cytochrome P450 3A4 [23] = target: T1, Cytochrome P450 3A4; assay: Inhibition of CYP3A4 in human liver microsomes using midazolam as substrate and in presence of co-factor preincubated for 20 mins followed by substrate addition by LC-MS/MS analysis
in vivo [24] = conditions: male, Sprague-Dawley, rat, po

T1 sequence (P08684 whole entry, the tested form may be a part): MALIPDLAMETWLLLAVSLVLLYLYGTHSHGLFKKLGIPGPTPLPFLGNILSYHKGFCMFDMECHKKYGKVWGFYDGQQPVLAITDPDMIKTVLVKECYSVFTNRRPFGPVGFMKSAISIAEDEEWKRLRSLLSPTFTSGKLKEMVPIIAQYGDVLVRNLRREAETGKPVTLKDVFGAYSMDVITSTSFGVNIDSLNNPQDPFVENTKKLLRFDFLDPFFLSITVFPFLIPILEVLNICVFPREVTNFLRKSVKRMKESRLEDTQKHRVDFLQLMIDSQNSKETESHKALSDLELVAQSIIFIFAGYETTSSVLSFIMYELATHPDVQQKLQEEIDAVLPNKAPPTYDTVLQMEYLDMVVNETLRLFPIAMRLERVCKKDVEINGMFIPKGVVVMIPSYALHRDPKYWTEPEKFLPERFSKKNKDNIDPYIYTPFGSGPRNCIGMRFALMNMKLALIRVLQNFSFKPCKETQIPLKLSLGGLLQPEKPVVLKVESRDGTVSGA

O=c1nc(OC[C@@H]2COCCO2)cc2n1CCc1cc(C#CC3CC3)ccc1-2 [GLPG-1205]
C0 at 24 h [1]: 395 ng/mL
half-life at 24 h [2]: 60 min
AUC(0-t) at 24 h (in vivo [3]): 1050 ng·h/mL
CLint scaled at 1 µM (in vitro [4]): < 21.3 mL/min/kg
CLint scaled at 0.5 h, 1 µM (in vitro [5]): < 19.3 mL/min/kg
Vd at 24 h [6]: 0.6 L/kg
bioavailability at 24 h (in vivo [7]): > 100%
Vd at 24 h [8]: 1.2 L/kg
solubility thermodynamic [9]: 12.6 µg/mL (≈ 33.3 µM)
IC50 (Cytochrome P450 3A4 [10]): > 50 µM
half-life at […] [11]: 84 min
IC50 (Cytochrome P450 3A4 [12]): > 50 µM
clearance at 24 h [13]: 11.7 mL/min/kg
fraction unbound at 4 h, 5 µM [14]: 0.028
AUC(0-t) at […] (in vivo [15]): 410 ng·h/mL
Tmax (in vivo [16]): 30 min
clearance at […] [17]: 20 mL/min/kg
IC50 [18]: 111 nM
CLint scaled at 0.5 h, 1 µM (in vitro [19]): 89 mL/min/kg
AUC(0-t) at 24 h (in vivo [20]): 5560 ng·h/mL
AUC(0-t) at 24 h (in vivo [21]): 2230 ng·h/mL
solubility (physchem): 113 µg/mL (≈ 299 µM)
Tmax at 24 h (in vivo [22]): 30 min
IC50 (Cytochrome P450 3A4 [23]): > 50 µM
AUC(0-t) at 24 h (in vivo [24]): 4470 ng·h/mL

Source: ChEMBL document CHEMBL4673243, “Discovery of 9-Cyclopropylethynyl-2-((S)-1-[1,4]dioxan-2-ylmethoxy)-6,7-dihydropyrimido[6,1-a]isoquinolin-4-one (GLPG1205), a Unique GPR84 Negative Allosteric Modulator Undergoing Evaluation in a Phase II Clinical Trial” (J Med Chem, 2020)
